Source: patent publication EP4438597A1, “2-STYRYLBENZOTHIAZOLE DERIVATIVES AS A-SYNUCLEIN BINDING COMPOUNDS” (Eberhard Karls Universität Tübingen Medizinische Fakultät, priority 2023, dated 2024)

Tests used:
αSYN fibrils [1] = target: T1, αSYN fibrils (Homo sapiens, UniProt P37840); assay: [3H]PiB competition binding assay on αSYN fibrils
Protocol: (§1) Concentrations of αSYN and Aβ1-42 fibrils were as described above.
Plates were incubated on a shaker (MaxQ 6000, Thermo Fisher Scientific Inc., Marietta, OH, USA) at 50 rpm for 2 hours at 37°C, covered by removable sealing tapes (PerkinElmer, Waltham, MA, USA). […] Data points were fitted using non-linear regression analysis in GraphPad Prism (GraphPad Software, Inc., Version 8.4.0, La Jolla, USA).

αSYN fibrils [2] = target: T1, αSYN fibrils; assay: [3H]MODAG-001 competition binding assay on αSYN fibrils; conditions: for Ki: competition with [3H]MODAG-001, αSYN fibrils
Protocol: as §1
(§2) Plates were incubated on a shaker (MaxQ 6000, Thermo Fisher Scientific Inc., Marietta, OH, USA) at 50 rpm for 2 hours at 37°C, covered by removable sealing tapes (PerkinElmer, Waltham, MA, USA). Vacuum filtration and read-out were performed as disclosed in Kuebler, L. et al., [11C]MODAG-001-towards a PET tracer targeting α-synuclein aggregates; European Journal of Nuclear Medicine and Molecular Imaging 2020, 48, 1759-1772. […] Data points were fitted using non-linear regression analysis in GraphPad Prism (GraphPad Software, Inc., Version 8.4.0, La Jolla, USA).

αSYN pathology = target: T2, αSYN pathology (Homo sapiens, UniProt P37840); assay: in vitro autoradiography on human brain slices with αSYN pathology (MSA, PD); type: binding; conditions: mean over MSA brain slices
T2 construct: tissue Neurobiobank München (NBM, Munich, Germany); host or cells: post-mortem human brain slices (MSA cerebellum, PD frontal cortex, controls)
Protocol: Post-mortem human brain slices (10 µm thickness) were obtained from and the subject cases were analyzed by the Neurobiobank München (NBM, Munich, Germany), where tissues were collected on the basis of written informed consent according to the guidelines of the ethics committee of the Ludwig-Maximilians-University Munich, Germany (# 345-13). The use of brain tissue samples in this study was approved by the ethics committee of the Faculty of Medicine at the University of Tuebingen (Ethics approval number: 813/2018BO2). Table 1 summarizes the information of the subjects from which samples were obtained and used in the experiment.
For autoradiography, brain slices were thawed for one hour before preincubation in BSA buffer for 25 minutes at room temperature. To determine total binding (TB), brain slices were incubated with the tracer (10 nM [^18F]PFSB, 10 nM [^18F]MFSB). […]
Quantitative data analysis was performed by drawing four regions of interest (ROIs) in relevant areas of the slice and one ROI next to it for background subtraction (imaged 1.8.0_172, National Institute of Health, Bethesda, Maryland, USA) (Schneider, C. A. et al., NIH Image to imaged: 25 years of image analysis; Nat Methods 2012, 9 (7), 671-5). […] The SB disease/SB control ratio was calculated by dividing by the SB in diseased tissues with the respective SB in control tissues.

Aβ1-42 fibrils = target: T3, Aβ1-42 fibrils (Homo sapiens, UniProt P05067); assay: [3H]PiB competition binding assay on Aβ fibrils; conditions: for binding to Aβ fibrils (competition with [3H]PiB): [3H]PiB competition on Aβ fibrils
T3 construct: Synthetic lyophilized human Aβ1-42 peptide; purchased EMC Microcollections, Tuebingen, Germany; host or cells: chemical synthesis
Text: The method for Aβ1-42 fibrils generation was adapted from Bagchi, D. P. et al., Binding of the radioligand SIL23 to alpha-synuclein fibrils in Parkinson disease brain tissue establishes feasibility and screening approaches for developing a Parkinson disease imaging agent; PLoS One 2013, 8 (2), e55031, and described in Kuebler, L. et al., [11C]MODAG-001-towards a PET tracer targeting α-synuclein aggregates; European Journal of Nuclear Medicine and Molecular Imaging 2020, 48, 1759-1772. Synthetic lyophilized human Aβ1-42 peptide (5 mg) with >90 % purity (EMC Microcollections, Tuebingen, Germany) was dissolved in DMSO (221.5 µL), followed by the addition of deionized water (4.1 mL) and 1 M Tris-HCl (111 µL, pH 7.6) to reach a final monomeric concentration of 250 µM. Aggregation was induced by incubation in Eppendorf Thermomixer at 37°C with shaking at 800 rpm for 72 hours. The resulted fibrils were sonicated for 3 min in a water bath (Elmasonic S 60 H, Elma Schmidbauer GmbH, Singen, Germany). The final products were aliquoted, frozen on dry ice, and stored at -80°C until use.
as §1, §2

[3] = [3H]PiB competition, αSYN fibrils, mean Ki ± SEM, two data points (9a, 14a, 15a, 17a, 18a, 43, 44, MFSB three; 12a single), read-out: Ki

T3 sequence (P05067 672-713 limits assumed): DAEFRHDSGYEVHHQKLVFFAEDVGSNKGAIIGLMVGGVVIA

SMILES	Ki (αSYN fibrils [1]; read-out: Ki) [µM]	other results
Fc1ccc2nc(C=Cc3ccc(N4CCCCC4)cc3)sc2c1 (mixture of isomers) [9a, 6-fluoro-2-(4-(piperidin-1-yl)styryl)benzo[d]thiazole]	–	Ki (αSYN fibrils [1]; [3]): 0.0254 ± 0.0023 µM; Ki (αSYN fibrils [2]): 0.142 ± 0.0169 µM
Cc1cccc2sc(C=Cc3ccc(N4CCCCC4)cc3)nc12 [1a, 4-methyl-2-(4-(piperidin-1-yl)styryl)benzo[d]thiazole]	0.135 ± 0.0635	–
Cc1cccc2sc(/C=C/c3ccc(N4CCCCC4)cc3)[n+](C)c12 [1b, 3,4-dimethyl-2-(4-(piperidin-1-yl)styryl)benzo[d]thiazol-3-ium 4-nitrobenzenesulfonate]	–	Ki (αSYN fibrils [1]): 0.06 ± 0.0239 µM
COc1cccc2sc(C=Cc3ccc(N4CCCCC4)cc3)[n+](C)c12 [2b, 4-methoxy-3-methyl-2-(4-(piperidin-1-yl)styryl)benzo[d]thiazol-3-ium iodide]	0.0526 ± 0.0183	–
Fc1cccc2sc(C=Cc3ccc(N4CCCCC4)cc3)nc12 [3a, 4-fluoro-2-(4-(piperidin-1-yl)styryl)benzo[d]thiazole]	0.149 ± 0.038	–
Cc1ccc2sc(C=Cc3ccc(N4CCCCC4)cc3)nc2c1 [4a, 5-methyl-2-(4-(piperidin-1-yl)styryl)benzo[d]thiazole]	0.161 ± 0.0727	–
Cc1ccc2sc(C=Cc3ccc(N4CCCCC4)cc3)[n+](C)c2c1 [4b, 3,5-dimethyl-2-(4-(piperidin-1-yl)styryl)benzo[d]thiazol-3-ium iodide]	0.0722 ± 0.0124	–
COc1ccc2sc(C=Cc3ccc(N4CCCCC4)cc3)nc2c1 [5a, 5-methoxy-2-(4-(piperidin-1-yl)styryl)benzo[d]thiazole]	0.158 ± 0.0297	–
COc1ccc2sc(C=Cc3ccc(N4CCCCC4)cc3)[n+](C)c2c1 [5b, 5-methoxy-3-methyl-2-(4-(piperidin-1-yl)styryl)benzo[d]thiazol-3-ium iodide]	0.0952 ± 0.0677	–
Fc1ccc2sc(C=Cc3ccc(N4CCCCC4)cc3)nc2c1 [6a, 5-fluoro-2-(4-(piperidin-1-yl)styryl)benzo[d]thiazole]	0.147 ± 0.0223	–
C[n+]1c(C=Cc2ccc(N3CCCCC3)cc2)sc2ccc(F)cc21 [6b, 5-fluoro-3-methyl-2-(4-(piperidin-1-yl)styryl)benzo[d]thiazol-3-ium iodide]	0.352 ± 0.0835	–
Cc1ccc2nc(C=Cc3ccc(N4CCCCC4)cc3)sc2c1 [7a, 6-methyl-2-(4-(piperidin-1-yl)styryl)benzo[d]thiazole]	0.224 ± 0.0061	–
Cc1ccc2c(c1)sc(C=Cc1ccc(N3CCCCC3)cc1)[n+]2C [7b, 3,6-dimethyl-2-(4-(piperidin-1-yl)styryl)benzo[d]thiazol-3-ium iodide]	0.0203 ± 0.0035	–
COc1ccc2nc(C=Cc3ccc(N4CCCCC4)cc3)sc2c1 [8a, 6-methoxy-2-(4-(piperidin-1-yl)styryl)benzo[d]thiazole]	0.106 ± 0.0036	–
COc1ccc2c(c1)sc(C=Cc1ccc(N3CCCCC3)cc1)[n+]2C [8b, 6-methoxy-3-methyl-2-(4-(piperidin-1-yl)styryl)benzo[d]thiazol-3-ium iodide]	0.0147 ± 0.0051	–
C[n+]1c(C=Cc2ccc(N3CCCCC3)cc2)sc2cc(F)ccc21 [9b, 6-fluoro-3-methyl-2-(4-(piperidin-1-yl)styryl)benzo[d]thiazol-3-ium iodide]	0.189 ± 0.146	–

SMILES	Ki (αSYN fibrils [1]; read-out: Ki) [µM]	other results
Cc1cccc2c1sc(C=Cc1ccc(N3CCCCC3)cc1)[n+]2C [10b, 3,7-dimethyl-2-(4-(piperidin-1-yl)styryl)benzo[d]thiazol-3-ium iodide]	0.148 ± 0.0837	–
COc1cccc2c1sc(C=Cc1ccc(N3CCCCC3)cc1)[n+]2C [11b, 7-methoxy-3-methyl-2-(4-(piperidin-1-yl)styryl)benzo[d]thiazol-3-ium iodide]	0.206 ± 0.0282	–
Fc1cccc2nc(C=Cc3ccc(N4CCCCC4)cc3)sc12 [12a, 7-fluoro-2-(4-(piperidin-1-yl)styryl)benzo[d]thiazole]	–	Ki (αSYN fibrils [1]; [3]): 0.283 µM
c1ccc2sc(-c3ccc(N4CCCCC4)cc3)nc2c1 [13a, 2-(4-(piperidin-1-yl)phenyl)benzo[d]thiazole]	0.0733 ± 0.0612	–
C(C=Cc1nc2ccccc2s1)=Cc1ccc(N2CCCCC2)cc1 [14a, 2-(4-(4-(piperidin-1-yl)phenyl)buta-1,3-dien-1-yl)benzo[d]thiazole]	–	Ki (αSYN fibrils [1]; [3]): 0.0819 ± 0.0156 µM
C[n+]1c(C=CC=Cc2ccc(N3CCCCC3)cc2)sc2ccccc21 [14b, 3-methyl-2-(4-(4-(piperidin-1-yl)phenyl)buta-1,3-dien-1-yl)benzo[d]thiazol-3-ium iodide]	0.0199 ± 0.0031	–
C(=Cc1nc2ccccc2s1)c1ccc(N2CCOCC2)cc1 [15a, 4-(4-(2-(benzo[d]thiazol-2-yl)vinyl)phenyl)morpholine]	–	Ki (αSYN fibrils [1]; [3]): 0.092 ± 0.0303 µM
C(=Cc1nc2ccccc2s1)c1ccc(N2CCSCC2)cc1 [16a, 2-(4-thiomorpholinostyryl)benzo[d]thiazole]	0.139 ± 0.0802	–
C(=Cc1nc2ccccc2s1)c1ccc(N2CCCC2)cc1 [17a, 2-(4-(pyrrolidin-1-yl)styryl)benzo[d]thiazole]	–	Ki (αSYN fibrils [1]; [3]): 0.0734 ± 0.019 µM
C[n+]1c(C=Cc2ccc(N3CCCC3)cc2)sc2ccccc21 [17b, 3-methyl-2-(4-(pyrrolidin-1-yl)styryl)benzo[d]thiazol-3-ium iodide]	0.102 ± 0.043	–
FC1CCN(c2ccc(C=Cc3nc4ccccc4s3)cc2)CC1 [18a, 2-(4-(4-fluoropiperidin-1-yl)styryl)benzo[d]thiazole]	–	Ki (αSYN fibrils [1]; [3]): 0.0998 ± 0.0326 µM
[18F]c1ccc2nc(/C=C/c3ccc(N4CCCCC4)cc3)sc2c1 [[^18F]PFSB]	–	specific binding (SB) ratio, MSA patients compared to control of the same brain area (αSYN pathology): 3.94 ± 0.30
C(=Cc1nc2ccccc2s1)c1ccc(N2CCCCC2)cc1 [compound 20, 2-(4-(piperidin-1-yl)styryl)benzo[d]thiazole]	0.102 ± 0.0685	–
Fc1ccc2nc(C=CC=Cc3ccc(N4CCCCC4)cc3)sc2c1 [compound 43, 6-fluoro-2-(4-(4-(piperidin-1-yl)phenyl)buta-1,3-dien-1-yl)benzo[d]thiazole]	–	Ki (αSYN fibrils [1]; [3]): 0.214 ± 0.121 µM; binding to Aβ fibrils (competition with [3H]PiB) (Aβ1-42 fibrils): low
Fc1ccc2nc(C=CC=Cc3ccc(N4CCCC4)cc3)sc2c1 [compound 44, 6-fluoro-2-(4-(4-(pyrrolidin-1-yl)phenyl)buta-1,3-dien-1-yl)benzo[d]thiazole]	–	Ki (αSYN fibrils [1]; [3]): 0.085 ± 0.041 µM; binding to Aβ fibrils (competition with [3H]PiB) (Aβ1-42 fibrils): low
Fc1ccc2nc(C=Cc3ccc(N4CCOCC4)cc3)sc2c1 [compound 45, 4-(4-(2-(6-fluorobenzo[d]thiazol-2-yl)vinyl)phenyl)morpholine]	–	affinity improved by factor compared to PFSB (αSYN fibrils [1]; [3H]PiB competition, αSYN fibrils, MFSB vs PFSB): 2.5; Ki (αSYN fibrils [1]; [3]): 0.0103 ± 0.0047 µM; selectivity towards αSYN over Aβ (Aβ1-42 fibrils; from [3H]PiB competition on αSYN and Aβ fibrils): remained unchanged; fold lower Ki than PFSB (αSYN fibrils [2]; [3H]MODAG-001 competition, MFSB vs PFSB): 4.6 fold; Ki (αSYN fibrils [2]): 0.0308 ± 0.0105 µM
